{"source": "patent US8133903B2", "about": "“Methods of use of inhibitors of phosphodiesterases and modulators of nitric oxide, reactive oxygen species, and metalloproteinases in the treatment of peyronie's disease, arteriosclerosis and other fibrotic diseases” (Los Angeles Biomedical Research Institute at Harbor—UCLA …, priority 2003, dated 2012)", "assay_type_in_all_cases": "in vivo", "key": {"[1]": {"tested_on": "TGF-β1-induced fibrotic plaque in the rat tunica albuginea", "test": "TGF-β1 rat model of Peyronie's disease, plaque and collagen deposition by Masson staining with QIA", "details": "long-term oral L-NIL, TGF-β1 injected rat", "description": "TGF-β1 rat model. Male Fisher 344 rats, 9-11 month old purchased from the NIH/NIA colony (Harlan Sprague-Dawley, Inc., San Diego, Calif.) and maintained under controlled temperature and lighting, were anesthetized and injected in the penile TA at the middle of the penis with either vehicle only (saline, group 1) or 0.5 μg recombinant human TGF-β1 (Biotech Diagnostic, Laguna Niguel, Calif., groups 2-5) as disclosed (Ferrini et al., 2002; Vernet et al., 2002). After the injection, groups 1 and 2 were given drinking water while the other groups received water with L-arginine (2.25 g/kg/day, group 3) (Moody et al., 1997), or sildenafil (10 mg/kg/day, group 4) or pentoxifylline (10 mg/kg/day, group 5). Forty-five days later, or as indicated, animals were sacrificed and perfused through the left ventricle with saline followed by 4% formalin ((Ferrini et al., 2002; Vernet et al., 2002). After the penises were excised, the penile skin was denuded by removing the glans and adhering non-crural tissue. The penile shaft was separated from the crura and 2-3 mm transverse slices were cut around the site of the saline or TGF-β1 injection. All tissues were post-fixed overnight in 4% formalin, washed in PBS and stored at 4° C.\nIn the case of tissue sections, the determinations of the collagen/smooth muscle ratio were carried out with Masson trichrome (Ferrini et al., 2002; Davila et al., 2003b) on adjacent 5 μm paraffin-embedded cross-sections from the human normal tunical or plaque tissues, or from a 2 mm area around the site of injection in the rat saline- and TGF-β1-injected shaft tissues. Other distal sections were obtained along the rat penile shaft.\nThe quantitation of the staining obtained by either histochemical or immunohisto/cytochemical techniques was performed by computerized densitometry using the ImagePro 4.01 program (Media Cybernetics, Silver Spring, Md.), coupled to an Olympus BHS microscope equipped with a Spot RT digital camera or VCC video camera (Wang et al., 2001; Ferrini et al., 2001a, 2001b; Davila et al., 2003b)."}, "collagen I promoter": {"tested_on": "collagen I promoter", "test": "Collagen I promoter reporter plasmid (β-galactosidase, luminometry) injected into the rat PD-like plaque", "details": "L-NIL treated TGF-β1 rat, vs control TA", "excerpt": "The effect of L-NIL in increasing collagen in the TA of the TGF-β1 rat model may be due to an increase in collagen synthesis, a decrease in its normal breakdown, or both. To determine whether the larger PD plaque in the L-NIL treated rat is due, at least in part, to an increase in collagen I synthesis (the most prevalent collagen protein in the TA), and not simply to the inhibition of collagenolysis by the MMPs, we injected a cDNA plasmid construct of the collagen I promoter driving the expression of a reporter gene (Magee et al., 2002a) into the site of the original TGF-β1 or saline injection, 10 days prior to sacrifice and 35 days after the TGF-β1 injection. This plasmid is an indicator of collagen I transcriptional activity within the rat PD plaque."}, "[2]": {"tested_on": "TGF-β1-induced fibrotic plaque in the rat tunica albuginea", "test": "Nitrotyrosine and ROS marker (heme-oxygenase I) detection in the TA of the TGF-β1 rat model", "description": "(§1) The determinations of iNOS, nitrotyrosine, heme-oxygenase I, PAI-I (Davila et al., 2003b), manganese superoxide dismutase (MnSOD), and CuZn SOD (Cu/Zn SOD) (Martin et al., 1994) were carried out on 5 μm paraffin-embedded adjacent tissue sections, that. were quenched for endogenous peroxidase activity after deparaffinization and rehydration. Sections were blocked with normal goat serum, and incubated with polyclonal IgG antibodies against mouse iNOS (1:500) (Transduction Laboratories, Lexington, KT), nitrotyrosine (1:100) (Upstate, Lake Placid, N.Y.), Mn SOD and Cu/Zn SOD (Oxygen, Portland, Oreg.) (1:800 and 1:500 respectively), heme oxygenase I (Stressgen, San Diego, Calif.), or PAI-1 (Abcam Ltd, Cambridge, UK). For negative controls the first antibodies were replaced by IgG isotype. The detection was based on a secondary anti-rabbit biotinylated antibody (1:200) for iNOS and nytrotyrosine (Calbiochem, La Jolla, Calif.), or anti-sheep biotinylated antibody (1:200) for Cu/Zn and Mn SOD, followed by the ABC complex (1:100) (Calbiochem) and 3,3′ diaminobenzidine (spelling) (DAB) (Sigma, St Louis Mo.). Sections were counterstained with hematoxylin.\nThe studies with L-arginine detailed in Example 1 show modulation of the size of the PD plaque by NO. […]"}, "[3]": {"tested_on": "arterial media of aged Brown Norway rats", "test": "Aged rat arterial tree model, Masson staining (SMC/collagen), intima/media thickness and lumen diameter", "details": "for intima media thickness / lumen diameter: OLD + L-NIL", "description": "(§2) Arterial Tree Rodent Model. Young (3-month) and aged (22-24 month) male Brown Norway rats were obtained from the NIH/NIA colony (Harlan Sprague-Dawley, Inc., San Diego, Calif.), and maintained under controlled temperature and lighting. One half of the aged animals were treated for 3 weeks with L-NIL at 0.1 g/l in the drinking water, while the rest of the animals received plain drinking water. Animals were anesthetized, pretreated with heparin, and perfused through the left ventricle with saline followed by 4% formalin. The abdominal aorta, brachial and femoral neurovascular bundles as well as the penis, denuded of its skin, were removed and post-fixed overnight in 4% formalin, and washed and stored in PBS at 4 C until paraffin embedding.\nSMC and collagen fibers within the corporal tissue and vascular tree were estimated by Masson trichromic staining (Sigma Diagnostic, St. Louis, Mo.) (Ferrini et al., 2002; Vernet et al., 2002; Davila et al, […]) in sections adjacent to those used for immunohistochemical staining, followed by image analysis to measure the ratio between SMC (red) and collagen fibers (blue). The results were expressed as red/blue ratios per area (see below). In the arterial tree, the intima/media thickness (IMT), and the diameter of the lumen were also measured.\n(§3) For iNOS, nitroyrosine, heme-oxygenase, PAI-1, MnSOD and Cu/Zn SOD determination, at least 6 sections per specimen were analyzed. Each slide assayed had its corresponding negative control. In certain cases, the number of immuno-positive cells was determined as a percentage of the total counterstained nuclei in a computerized grid. In the Masson staining, the ratio between SMC (red) and collagen fibers (blue) was obtained and expressed per area."}, "[4]": {"tested_on": "arterial media of aged Brown Norway rats", "test": "Aged rat arterial tree model, immunohistochemistry for iNOS, nitrotyrosine, Cu/Zn SOD, heme oxygenase I, PAI", "description": "as §2, §1, §3"}, "[5]": {"tested_on": "SMC in the media of the penile resistance arteries", "test": "Aged rat arterial tree model, TUNEL apoptosis in the media of the penile arteries", "details": "aged rats, L-NIL treatment", "description": "as §2, §3"}}, "data": [{"smiles": "CC(=N)NCCCC[C@H](N)C(=O)O", "note": "[L-NIL, L-iminoethyl-L-lysine]", "values": [{"measurement": "expansion and thickening of the TA due to collagen fiber deposition", "setting": "[1]", "value": "remarkable expansion and thickening of the TA"}, {"measurement": "expression of the reporter β-galactosidase driven by the collagen I promoter (luminometry in tissue extracts)", "setting": "collagen I promoter", "value": "considerably intensified"}, {"measurement": "ROS levels", "setting": "[2]; iNOS activity blocked with L-NIL in the TGF-β1 rat model", "value": "considerable elevation"}, {"measurement": "peroxynitrite as indicated by nitrotyrosine formation in the TA", "setting": "[2]; long-term oral L-NIL, TGF-β1 injected rat", "value": "considerable increase"}, {"measurement": "collagen fibers within the media of the aorta and the dorsal penile artery", "setting": "[3]; aged rats, L-NIL for 3 weeks", "value": "further increase in the collagen fibers"}, {"measurement": "amount of collagen within the media (SMC/collagen ratio, image analysis)", "setting": "[3]; aged rats, L-NIL, aorta, femoral, dorsal, with the exception of the bulbourethral artery", "value": "further exacerbation in the amount of collagen"}, {"measurement": "intima media thickness", "setting": "[3]; aorta", "value": "85.2 ± 6.6", "unit": "μm"}, {"measurement": "intima media thickness", "setting": "[3]; bulbo urethral", "value": "9.9 ± 0.7", "unit": "μm"}, {"measurement": "lumen diameter", "setting": "[3]; bulbo urethral", "value": "47.3 ± 6.6", "unit": "μm"}, {"measurement": "intima media thickness", "setting": "[3]; femoral", "value": "51.8 ± 4.6", "unit": "μm"}, {"measurement": "intima media thickness", "setting": "[3]; penile dorsal", "value": "23.6 ± 3.3", "unit": "μm"}, {"measurement": "lumen diameter", "setting": "[3]; penile dorsal", "value": "105.5 ± 16.", "unit": "μm"}, {"measurement": "effect on PAI expression in the aged media (quantitative image analysis)", "setting": "[4]; L-NIL", "value": "negligible"}, {"measurement": "expression of heme oxygenase I in the penile dorsal artery", "setting": "[4]; L-NIL", "value": "did not induce a further significant change"}, {"measurement": "iNOS expression in the arterial media", "setting": "[4]; L-NIL", "value": "reduction in iNOS expression"}, {"measurement": "peroxynitrite formation (nitrotyrosine) in the arterial media", "setting": "[4]; L-NIL", "value": "reduction in peroxynitrite formation"}, {"measurement": "increase of Cu/Zn SOD (indirect marker of ROS), image analysis", "setting": "[4]; L-NIL blockade of iNOS activity", "value": "40 to 50", "unit": "%"}, {"measurement": "apoptotic index, dorsal and bulbourethral penile arteries", "setting": "[5]", "value": "reduction"}]}]}
